Data reported in US20110028566A1, “COMPOSITIONS AND PRODUCTS CONTAINING CYCLOALIPHATIC DIOL ANTIMICROBIAL AGENTS AND METHODS OF USING THE COMPOSITIONS AND PRODUCTS” (EASTMAN CHEMICAL COMPANY, priority 2009, published 2011).

Legend:
Assay type in all cases: cell-based
Trichophyton rubrum = test: Challenge testing with pathogenic fungi in SDB; details: w/v % in label, INT respiratory dye; for Grade code, Pathogenic Fungi, T. ruburm, 3 Days: 3 days incubation; for Grade code, Pathogenic Fungi, T. ruburm, 14 Days: 14 days incubation; for Grade code, Pathogenic Fungi, T. ruburm, 30 Days: 30 days incubation
Description: (§1) Both M. canis and Trichophyton rubrum were grown on Sabouraud dextrose broth (SDB) (pH 5.6), while Malassezia fufur was grown in SDB supplemented with 2% (v/v) of olive oil and 0.2% (v/v) of Tween™ 80; incubation was at 22° C.±2° C. under continuous agitation by stirring for 10 days. The organisms were grown to a cell concentration of between 10^3 and 10^4 cfu/mL. The actual inoculation cell concentration of these challenges was determined by diluting in sterile buffer water and (spread-plate method) plating for enumeration.
(§2) Challenge organisms were used to inoculate tubes containing each test material (CHDM, etc) or combination of test materials, at concentrations given in Table 5, in SDB (or for M. furfur, in SDB supplemented with olive oil and Tween™ 80). The inoculations were in the amount of 1.5 mL aliquots of each culture with static incubation at 22±2° C. Subcultures were made after 3-, 14-, and 30-days incubation. All challenges were conducted in triplicate. In the case of M. canis, the growth response was assessed by the visual presence or absence of growth in the tubes; in the case of T. rubrum, a respiratory dye (0.2% w/v aqueous INT solution: 2-(4-iodophenyl)-3-(4-nitrophenyl)-5-phenyl tetrazolium chloride) was added to the tubes, turning red if the organism was viable; and, finally, in the case of M. furfur, the growth response was assessed based upon visible pellicle formation in the tubes at the meniscus. The fungal growth in each tube was assigned a grade code as follows:
(§3) 0: No visible growth 1: Some growth in tube 2: Moderate growth in tube 3: Good growth in tube 4: Extreme growth in tube
(§4) All test material concentrations are given as w/v %. The grade codes given are the average of the grade codes for duplicate or triplicate samples.
(§5) Table 5 compares the antimicrobial activity of 1,4-CHDM (AB) alone to 1,4-CHDM in combination with EDTA, phenoxyethanol (PE), and caprylyl glycol (CG). CHDM at 0.5% was tested with EDTA, and at 1.25 and 2.5% with EDTA, PE, and CG. (Note that the combination of CHDM with only EDTA was not tested against pathogenic fungi.) Results are also given for EDTA, PE, and CG alone, so the result for each mixture can be compared to the antimicrobial activity for each of its components individually. […] Possible synergies were determined by treating the grade code as an estimate of the log of the microbial count (log of cfu/mL). Log reductions can then be estimated by subtracting each grade code from the grade code for broth alone (grade code 5, except for the pathogenic fungi).

Malassezia furfur = test: Challenge testing with pathogenic fungi in SDB; details: SDB with olive oil and Tween 80, w/v % in label, pellicle formation; for Grade code, Pathogenic Fungi, M. furfur, 3 Days: 3 days incubation; for Grade code, Pathogenic Fungi, M. furfur, 14 Days: 14 days incubation; for Grade code, Pathogenic Fungi, M. furfur, 30 Days: 30 days incubation
Description: as §1, §2, §3, §4, §5

Microsporum canis = test: Challenge testing with pathogenic fungi in SDB; details: w/v % in label, visual growth in tubes; for Grade code, Pathogenic Fungi, M. canis, 3 Days: 3 days incubation; for Grade code, Pathogenic Fungi, M. canis, 14 Days: 14 days incubation; for Grade code, Pathogenic Fungi, M. canis, 30 Days: 30 days incubation
Description: as §1, §2, §3, §4, §5

Candida albicans = test: Microbial challenge testing in BPW; details: for Grade code, C. albicans, 3 Day / Grade code, C. albicans, 14 Day / Grade code, C. albicans, 30 Days: BPW, w/v % in label, average of replicates
Description: The microorganisms used in challenge tests are given in Table 3, designated as either ATCC (American Type Culture Collection) or wild type. These wild type organisms were problematic organisms previously isolated from chemical products. In the description for each organism, the bacteria are indicated as either GN (Gram negative) or GP (Gram positive).
All of the microorganisms were grown in Tryptose Soy Broth (TSB), DIFCO™ available from Becton, Dickinson and Company, containing 1% dextrose. Aspergillus niger and Candida albicans were incubated at 22° C.±2° C. for at least 96 hours. All bacteria were incubated at 35° C.±2° C. in a humidified incubator for at least 96 hours.
Aspergillus niger and Candida albicans were also grown on Sabouraud dextrose agar (SDA) at 22° C.±2° C. for 7 to 14 days or until full sporulation was achieved.
The following procedure was followed to determine the amount of each challenge material (inoculum broth) required to produce a 10^8 cfu/mL challenge, which is equivalent to a final test-sample microbial concentration of 10^5 to 10^6 cfu (colony-forming units)/mL.
Using a sterile serological pipette, 1 mL of the growth from each TSB culture was transferred into tubes containing 9 mL phosphate buffer (pH 7.2) and mixed thoroughly. This process was repeated to make serial 1:10 dilutions. Then 0.1 mL of each sample and dilution was inoculated onto agar plates to produce the equivalent of a further 1:10 dilution. C. albicans and A. niger were inoculated onto SDA and bacteria were inoculated onto Plate Count Agar (PCA), DIFCO™ available from Becton, Dickinson and Company. The 0.1 mL aliquots were evenly distributed on the plates using the spread-plate technique. The spread-plate technique is performed by spreading the aliquot over the entire plate surface using a sterile spreading rod while rotating the plate with a rotary auto-plater. After the inoculum was absorbed completely, each plate was inverted and incubated (fungi at 22° C.±2° C. and bacteria at 35° C.±2° C.).
After incubation for at least 48 hours, colonies that had developed on the agar plates were counted and recorded with the corresponding dilution. If counting had to be delayed temporarily, plates were refrigerated, preferably no more than 24 hours, until they could be counted. The number of cfu/mL was determined by multiplying the count by the dilution factor for that particular plate.
Turbidity in Nepholemetric Turbidity Units (NTU) was measured for each serial dilution using the HF-Micro 100 Model Turbidimeter. For each microorganism, the plate counts were compared to the turbidity readings.
On the day of challenge, the Candida albicans inoculum broth was poured through non-absorbent sterile gauze and centrifuged. The […] was then diluted with phosphate buffer (pH 7.2) until the desired turbidity was reached. Using a hemocytometer, a determination was made whether the challenge contained the desired concentration. Dilutions were made through 1.0×10^8 and three SDA spread plates were inoculated with 0.1 mL of each dilution.
Control substrates (“broth alone”) were prepared for each microorganism separately in triplicate by adding 13.5 mL of BPW (pH 7.0) containing 1% (w/v) dextrose to each 20-mL glass tube; then adding 1.5 mL challenge material to produce a final concentration at time zero of 10^5 to 10^6 cfu/mL and a total volume of 15 mL.
Test sample substrates were prepared containing each test material (1,4-CHDM, etc) or combination of test materials at the concentrations shown in Tables 5 and 6.

Row | Structure (SMILES) | Grade code, Pathogenic Fungi, T. ruburm, 3 Days (Trichophyton rubrum) | Grade code, Pathogenic Fungi, T. ruburm, 14 Days (Trichophyton rubrum) | Grade code, Pathogenic Fungi, T. ruburm, 30 Days (Trichophyton rubrum) | Grade code, Pathogenic Fungi, M. furfur, 3 Days (Malassezia furfur) | Grade code, Pathogenic Fungi, M. furfur, 14 Days (Malassezia furfur) | Grade code, Pathogenic Fungi, M. furfur, 30 Days (Malassezia furfur) | Grade code, Pathogenic Fungi, M. canis, 3 Days (Microsporum canis) | Grade code, Pathogenic Fungi, M. canis, 14 Days (Microsporum canis) | Grade code, Pathogenic Fungi, M. canis, 30 Days (Microsporum canis) | Grade code, C. albicans, 3 Day (Candida albicans; 3 days incubation) | Grade code, C. albicans, 14 Day (Candida albicans; 14 days incubation) | Grade code, C. albicans, 30 Days (Candida albicans; 30 days incubation) | also measured
1 | CCCCCCC(O)CO (stereo not drawn) [CG, 1,2-octanediol] | 0 | 0 | 0 | 0 | 0 | 0 | 0 | 0 | 0 | 3 (101 to 1000 colonies (thus 1000 to 10,000 cfu/mL)) | 0 (No growth detected or <1 colony (thus <10 cfu/mL)) | 0 (No growth detected or <1 colony (thus <10 cfu/mL)) | 
2 | CC1(C)C(O)C(C)(C)C1O (stereo not drawn) [TMCD, 2,2,4,4-tetramethyl-1,3-cyclobutanediol] |  |  |  |  |  |  |  |  |  |  |  |  | Grade code C. albicans (Candida albicans; 0.5%, 3 days incubation): 4 (1001 to 10,000 colonies (thus 10,000 cfu/mL to 100,000 cfu/mL)); Grade code C. albicans (Candida albicans; 0.5%, 14 days incubation): 4 (1001 to 10,000 colonies (thus 10,000 cfu/mL to 100,000 cfu/mL)); Grade code C. albicans (Candida albicans; 0.5%, 30 days incubation): 4 (1001 to 10,000 colonies (thus 10,000 cfu/mL to 100,000 cfu/mL)); Grade code C. albicans (Candida albicans; 1.25%, 3 days incubation): 3 (101 to 1000 colonies (thus 1000 to 10,000 cfu/mL)); Grade code C. albicans (Candida albicans; 1.25%, 14 days incubation): 4 (1001 to 10,000 colonies (thus 10,000 cfu/mL to 100,000 cfu/mL)); Grade code C. albicans (Candida albicans; 1.25%, 30 days incubation): 4 (1001 to 10,000 colonies (thus 10,000 cfu/mL to 100,000 cfu/mL)); Grade code C. albicans (Candida albicans; 2.5%, 3 days incubation): 3 (101 to 1000 colonies (thus 1000 to 10,000 cfu/mL)); Grade code C. albicans (Candida albicans; 2.5%, 14 days incubation): 2 (52 to 100 colonies counted (thus 520 to 1000 cfu/mL)); Grade code C. albicans (Candida albicans; 2.5%, 30 days incubation): 2 (52 to 100 colonies counted (thus 520 to 1000 cfu/mL))
3 | O=C([O-])CN(CCN(CC(=O)O)CC(=O)O)CC(=O)[O-].[Na+].[Na+] [EDTA, ethylenediaminetetraacetic acid disodium salt] | 1 | 0 | 0 | 0 | 0 | 0 | 2 | 1 | 0 | 4 (1001 to 10,000 colonies (thus 10,000 cfu/mL to 100,000 cfu/mL)) | 5 (More than 10,000 colonies estimated (thus >100,000 cfu/mL)) | 5 (More than 10,000 colonies estimated (thus >100,000 cfu/mL)) | 
